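Following 48 hours of exposure in 96-well plates, responses at five concentrations were used to interpolate endpoints linearly. GI50 marks 50% less growth.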 Calls of active or inactive are those of the source. Rule as the data show it: active = GI50 up to about 1.1 µM and inactive = higher.
Legend:
Assay in all cases: growth of human tumour cells (NCI), 48 h
MOLT-4 = test system: MOLT-4
PC-3 = test system: PC-3
UO-31 = test system: UO-31
SN12C = test system: SN12C
HCT-15 = test system: HCT-15
NCI-H226 = test system: NCI-H226
HCC 2998 = test system: HCC 2998
SR = test system: SR
UACC-257 = test system: UACC-257
UACC-62 = test system: UACC-62
M14 = test system: M14
HOP-62 = test system: HOP-62
CAKI-1 = test system: CAKI-1
NCI-H522 = test system: NCI-H522
Malme-3M = test system: Malme-3M
SNB-19 = test system: SNB-19
NCI/ADR-RES = test system: NCI/ADR-RES
ACHN = test system: ACHN
HT-29 = test system: HT-29
SF-295 = test system: SF-295

Compound	GI50 (MOLT-4)	GI50 (PC-3)	GI50 (UO-31)	GI50 (SN12C)	GI50 (HCT-15) [µM]	GI50 (NCI-H226)	GI50 (HCC 2998)	GI50 (SR)	GI50 (UACC-257)	GI50 (UACC-62)	GI50 (M14)	GI50 (HOP-62)	GI50 (CAKI-1)	GI50 (NCI-H522)	GI50 (Malme-3M)	GI50 (SNB-19)	GI50 (NCI/ADR-RES)	GI50 (ACHN)	GI50 (HT-29)	GI50 (SF-295)
C#CCOC(=O)C(N)CSSCC(N)C(=O)O (stereo not drawn)	> 100 µM (inactive)	> 100 µM (inactive)	> 100 µM (inactive)	> 100 µM (inactive)	> 100	> 100 µM (inactive)	> 100 µM (inactive)	> 100 µM (inactive)	> 100 µM (inactive)	> 100 µM (inactive)	> 100 µM (inactive)	> 100 µM (inactive)	> 100 µM (inactive)	> 100 µM (inactive)	> 100 µM (inactive)	> 100 µM (inactive)	> 100 µM (inactive)	> 100 µM (inactive)		
CC1(C)[N+]([O-])=[N+]([O-])C1(C)Br (stereo not drawn)	> 100 µM (inactive)	> 100 µM (inactive)	> 100 µM (inactive)	> 100 µM (inactive)	> 100	> 100 µM (inactive)	> 100 µM (inactive)	91 µM (inactive)	> 100 µM (inactive)	> 100 µM (inactive)	> 100 µM (inactive)	> 100 µM (inactive)	> 100 µM (inactive)	> 100 µM (inactive)		> 100 µM (inactive)	65.8 µM (inactive)	> 100 µM (inactive)	> 100 µM (inactive)	82.4 µM (inactive)
CCN(CC)CCC(=O)Nc1ccc2sc3ccccc3c(=O)c2n1	7.78 µM (inactive)	15.4 µM (inactive)	10.4 µM (inactive)	23 µM (inactive)	19.3		19.7 µM (inactive)	15.9 µM (inactive)	17.3 µM (inactive)	17.7 µM (inactive)	13.8 µM (inactive)	16 µM (inactive)	14 µM (inactive)	14.8 µM (inactive)	23.4 µM (inactive)	16.7 µM (inactive)	19.8 µM (inactive)	16.3 µM (inactive)	36.7 µM (inactive)	21.2 µM (inactive)
NNC(=O)CSc1nc2ccc(I)cc2c(=O)n1Cc1ccccc1	15 µM (inactive)	22.8 µM (inactive)	15.9 µM (inactive)	21.3 µM (inactive)	36.6	18.8 µM (inactive)	16.8 µM (inactive)	26.5 µM (inactive)	19.9 µM (inactive)	18.6 µM (inactive)	18.2 µM (inactive)	19 µM (inactive)	15.3 µM (inactive)	14.9 µM (inactive)		23.3 µM (inactive)	40.6 µM (inactive)	18.7 µM (inactive)	21.7 µM (inactive)	21.9 µM (inactive)
COc1cc([C@@H]2c3cc4c(cc3[C@@H](c3c(O)cc(O)c5c3O[C@H](c3ccc(O)c(O)c3)[C@H](OC(=O)c3cc(O)c(O)c(O)c3)C5)[C@H]3COC(=O)[C@H]23)OCO4)cc(OC)c1OC	7.74 µM (inactive)	5.28 µM (inactive)		12.9 µM (inactive)	18.7	2.65 µM (inactive)	20.2 µM (inactive)	2.69 µM (inactive)	43.1 µM (inactive)	4.73 µM (inactive)	9.93 µM (inactive)	11.9 µM (inactive)	13.8 µM (inactive)	3.92 µM (inactive)		52.7 µM (inactive)	33 µM (inactive)	1.33 µM (inactive)	17.6 µM (inactive)	3.91 µM (inactive)
COCCN(C(C)=O)C1CCC2(SCCS2)c2[nH]c3ccccc3c21 (stereo not drawn)	56.9 µM (inactive)	> 100 µM (inactive)		> 100 µM (inactive)	> 100	> 100 µM (inactive)	> 100 µM (inactive)	42.5 µM (inactive)	> 100 µM (inactive)			> 100 µM (inactive)	> 100 µM (inactive)	> 100 µM (inactive)	> 100 µM (inactive)	> 100 µM (inactive)	> 100 µM (inactive)	> 100 µM (inactive)	> 100 µM (inactive)	> 100 µM (inactive)
COc1ccc(OC)c(C2CCc3c(cnc4nc(N)nc(N)c34)C2)c1 (stereo not drawn)	2.49 µM (inactive)	8.2 µM (inactive)		8.83 µM (inactive)	5.42	24.9 µM (inactive)	12.3 µM (inactive)	3.86 µM (inactive)	4.28 µM (inactive)	0.673 µM (active)	1.3 µM (inactive)	12.2 µM (inactive)	14 µM (inactive)	6.24 µM (inactive)	4.83 µM (inactive)	6.92 µM (inactive)	55.3 µM (inactive)	3.91 µM (inactive)	2 µM (inactive)	7.23 µM (inactive)
O=S(=O)(O)c1ccc2c(/N=N/c3ccccc3)c(O)c(S(=O)(=O)O)cc2c1	> 100 µM (inactive)	> 100 µM (inactive)	> 100 µM (inactive)	> 100 µM (inactive)	> 100	> 100 µM (inactive)	> 100 µM (inactive)	> 100 µM (inactive)	> 100 µM (inactive)	> 100 µM (inactive)	> 100 µM (inactive)	> 100 µM (inactive)	> 100 µM (inactive)	> 100 µM (inactive)	> 100 µM (inactive)	> 100 µM (inactive)	> 100 µM (inactive)	> 100 µM (inactive)		> 100 µM (inactive)
O=C(O)C12C3C4(C(=O)O)C1C1(C(=O)O)C2C3(C(=O)O)C41 (stereo not drawn)	> 100 µM (inactive)	> 100 µM (inactive)	> 100 µM (inactive)	> 100 µM (inactive)	> 100		> 100 µM (inactive)	> 100 µM (inactive)	> 100 µM (inactive)	> 100 µM (inactive)	> 100 µM (inactive)	> 100 µM (inactive)	> 100 µM (inactive)	> 100 µM (inactive)	> 100 µM (inactive)	> 100 µM (inactive)	> 100 µM (inactive)	> 100 µM (inactive)	> 100 µM (inactive)	4.4 µM (inactive)
COc1ccc(CNC(=O)NCn2cc(-c3ccccc3)nn2)cc1	> 100 µM (inactive)	> 100 µM (inactive)		> 100 µM (inactive)	> 100		14.1 µM (inactive)	> 100 µM (inactive)	> 100 µM (inactive)		> 100 µM (inactive)	> 100 µM (inactive)	> 100 µM (inactive)	> 100 µM (inactive)	> 100 µM (inactive)	> 100 µM (inactive)	> 100 µM (inactive)	> 100 µM (inactive)	> 100 µM (inactive)	> 100 µM (inactive)
CN(C)CCNc1ccc(NCCN(C)C)c2c1C(=O)c1ncsc1C2=O	1.94 µM (inactive)	15.3 µM (inactive)	15.2 µM (inactive)	10.9 µM (inactive)	11.4	2.53 µM (inactive)	15 µM (inactive)	1.21 µM (inactive)	18.5 µM (inactive)	11.4 µM (inactive)	18.2 µM (inactive)	13.2 µM (inactive)	16.9 µM (inactive)	11.6 µM (inactive)		18.6 µM (inactive)	35.7 µM (inactive)	8.2 µM (inactive)	6.46 µM (inactive)	12.8 µM (inactive)
CC1(C)C=C(/C=C2/N(S(=O)(=O)C(F)(F)F)C(/C=C3/N(S(=O)(=O)C(F)(F)F)C(C)(C#N)CC3(C)C)=CC2(C)C)N=C1/C=C1/CC(C)(C)C(=O)N1 (stereo not drawn)	2.84 µM (inactive)	5.71 µM (inactive)	35.8 µM (inactive)	22.3 µM (inactive)	6.05	22.7 µM (inactive)	35.2 µM (inactive)	2.8 µM (inactive)	20.6 µM (inactive)	14.4 µM (inactive)	29.3 µM (inactive)	9.44 µM (inactive)	11.4 µM (inactive)	5.96 µM (inactive)		52.5 µM (inactive)	23.3 µM (inactive)	23.7 µM (inactive)	16.8 µM (inactive)	14.3 µM (inactive)
O=c1c2cc(Cl)cc(Cl)c2oc2nc3n(c(=O)c12)CCCS3	57.8 µM (inactive)	> 100 µM (inactive)	18.8 µM (inactive)	> 100 µM (inactive)	> 100	> 100 µM (inactive)	> 100 µM (inactive)	> 100 µM (inactive)	> 100 µM (inactive)	> 100 µM (inactive)	> 100 µM (inactive)	> 100 µM (inactive)	> 100 µM (inactive)	16.7 µM (inactive)	> 100 µM (inactive)	> 100 µM (inactive)	> 100 µM (inactive)	> 100 µM (inactive)		> 100 µM (inactive)
Cc1cn(CC2=NC3CCCCC3N2)c(=O)[nH]c1=O (stereo not drawn)	> 100 µM (inactive)	> 100 µM (inactive)	> 100 µM (inactive)	> 100 µM (inactive)	> 100	> 100 µM (inactive)	> 100 µM (inactive)	> 100 µM (inactive)	> 100 µM (inactive)	> 100 µM (inactive)	> 100 µM (inactive)	> 100 µM (inactive)		> 100 µM (inactive)	> 100 µM (inactive)	> 100 µM (inactive)	> 100 µM (inactive)	> 100 µM (inactive)	> 100 µM (inactive)	> 100 µM (inactive)
Cc1ccc(S(=O)(=O)NC(=O)NCc2ccc(S(N)(=O)=O)cc2)cc1	> 100 µM (inactive)	> 100 µM (inactive)	> 100 µM (inactive)		> 100	> 100 µM (inactive)	> 100 µM (inactive)	> 100 µM (inactive)		> 100 µM (inactive)	> 100 µM (inactive)	> 100 µM (inactive)	> 100 µM (inactive)	> 100 µM (inactive)	> 100 µM (inactive)	> 100 µM (inactive)	> 100 µM (inactive)	> 100 µM (inactive)	> 100 µM (inactive)	> 100 µM (inactive)

— ChEMBL document CHEMBL1201862, “PubChem BioAssay data set” (2004)
